This note sets out measurements from ChEMBL document CHEMBL1129026, “Rapid microscale synthesis, a new method for lead optimization using robotics and solution phase chemistry: application to the synthesis and optimization of corticotropin-releasing factor1 receptor antagonists” (J Med Chem, 1996).

The term Ki denotes a dissociation constant, usually derived from enzyme kinetics or from competition with a known ligand.

The assay concerns the target T1, Corticotropin-releasing factor receptor 1 (Homo sapiens, UniProt P34998).
T1 sequence (P34998 whole entry): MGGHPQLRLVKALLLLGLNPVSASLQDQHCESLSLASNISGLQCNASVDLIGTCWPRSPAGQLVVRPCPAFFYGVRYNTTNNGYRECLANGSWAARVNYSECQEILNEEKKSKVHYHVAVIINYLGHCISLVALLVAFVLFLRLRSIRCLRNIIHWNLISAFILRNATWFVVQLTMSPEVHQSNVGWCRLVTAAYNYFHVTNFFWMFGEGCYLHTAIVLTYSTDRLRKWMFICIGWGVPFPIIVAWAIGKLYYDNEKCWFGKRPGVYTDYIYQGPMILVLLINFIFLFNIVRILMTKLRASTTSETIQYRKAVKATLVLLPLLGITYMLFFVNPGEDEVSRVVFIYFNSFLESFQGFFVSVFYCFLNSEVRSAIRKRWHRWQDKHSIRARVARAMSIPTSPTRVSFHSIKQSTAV
The assay can be described thus: Inhibition of [125I]CRF binding to human corticotropin releasing factor receptor 1.
`CCc1cccc(CC)c1Nc1nc(C)nc(N(CC)Cc2ccccc2)n1` returned a Ki of 1.7 µM.
With `CCCN(Cc1ccccc1)c1nc(C)nc(Nc2c(C)cc(C)cc2C)n1` the figure was 0.49 µM; with `CCCCN(Cc1ccccc1)c1nc(C)nc(Nc2c(C)cc(C)cc2C)n1`, 1.05 µM; with `CCCN(CC1CC1)c1nc(C)nc(Nc2ccc(C)cc2C)n1`, > 10 µM.
Consider `CCCN(Cc1ccccc1)c1nc(C)nc(Nc2c(CC)cccc2CC)n1`, for which the Ki is > 10 µM.
As for `C=CCN(CC=C)c1nc(C)nc(Nc2ccc(C)cc2)n1`, the Ki is > 10 µM.
With `CCCN(CC1CC1)c1nc(C)nc(Nc2ccc(OC)cc2OC)n1`, affinity was put at a Ki of 8 µM.
As for `CCCN(CC1CC1)c1nc(C)nc(Nc2ccc(C)cc2)n1`, the Ki is > 10 µM.
With `CCCN(Cc1ccccc1)c1nc(C)nc(Nc2c(C)cccc2C)n1` the figure was > 10 µM; with `CCCN(CCC)c1nc(C)nc(Nc2c(C)cc(C)cc2C)n1`, 0.13 µM; with `CCCN(Cc1ccccc1)c1nc(C)nc(Nc2ccc(C)cc2)n1`, > 10 µM.
Then `CCN(Cc1ccccc1)c1nc(C)nc(Nc2c(C)cccc2C)n1`, with > 10 µM.
Turning to `Cc1ccc(Nc2nc(C)nc(NCc3ccc(C(F)(F)F)cc3)n2)cc1`, the Ki was > 10 µM.
With `CCCCN(CCCC)c1nc(C)nc(Nc2c(C)cc(C)cc2C)n1` the figure was 0.49 µM.
With `CCCN(CC1CC1)c1nc(C)nc(Nc2c(C)cccc2C)n1` the figure was > 10 µM; with `CCN(Cc1ccccc1)c1nc(C)nc(Nc2ccc(C)cc2)n1`, > 10 µM.
As for `CCc1cccc(CC)c1Nc1nc(C)nc(NCc2ccc(C(F)(F)F)cc2)n1`, the Ki amounted to 55 µM.
With `CCCN(CC1CC1)c1nc(C)nc(Nc2c(CC)cccc2CC)n1` the figure was > 10 µM.
For the compound `Cc1nc(NCc2ccc(C(F)(F)F)cc2)nc(Nc2c(C)cccc2C)n1`, the Ki is > 10 µM.
The compound `CCN(Cc1ccccc1)c1nc(C)nc(Nc2c(C)cc(C)cc2C)n1` registered an inhibition constant (Ki) of 1.47 µM.
`C=CCN(CC=C)c1nc(C)nc(Nc2c(C)cc(C)cc2C)n1`: the Ki amounted to 0.115 µM.
For the compound `CCCN(CC1CC1)c1nc(CC)nc(Nc2c(C)cc(C)cc2C)n1`, the Ki is > 10 µM.
On to `C=CCN(CC=C)c1nc(C)nc(Nc2c(C)cccc2C)n1`, for which the Ki is > 10 µM.
